Experimental data published in ChEMBL document CHEMBL4004849, “Tetrazolylmethyl quinolines: Design, docking studies, synthesis, anticancer and antifungal analyses” (2017).
Converted amounts (≈) assume the structure as drawn. The source made the active and inactive calls. No cut-off for these calls is given here.

Assays:
Format in all cases: functional
HL-60(TB) = assay: Growth inhibition of human HL-60(TB) cells at 10^-5 M incubated for 48 hrs by sulforhodamine B assay relative to control
K562 = assay: Growth inhibition of human K562 cells at 10^-5 M incubated for 48 hrs by sulforhodamine B assay relative to control
MOLT-4 = assay: Growth inhibition of human MOLT4 cells at 10^-5 M incubated for 48 hrs by sulforhodamine B assay relative to control
SR = assay: Growth inhibition of human SR cells at 10^-5 M incubated for 48 hrs by sulforhodamine B assay relative to control
A549 = assay: Growth inhibition of human A549/ATCC cells at 10^-5 M incubated for 48 hrs by sulforhodamine B assay relative to control
NCI-H226 = assay: Growth inhibition of human NCI-H226 cells at 10^-5 M incubated for 48 hrs by sulforhodamine B assay relative to control
NCI-H23 = assay: Growth inhibition of human NCI-H23 cells at 10^-5 M incubated for 48 hrs by sulforhodamine B assay relative to control
NCI-H460 = assay: Growth inhibition of human NCI-H460 cells at 10^-5 M incubated for 48 hrs by sulforhodamine B assay relative to control
NCI-H522 = assay: Growth inhibition of human NCI-H522 cells at 10^-5 M incubated for 48 hrs by sulforhodamine B assay relative to control
COLO 205 = assay: Growth inhibition of human COLO205 cells at 10^-5 M incubated for 48 hrs by sulforhodamine B assay relative to control
HCC 2998 = assay: Growth inhibition of human HCC2998 cells at 10^-5 M incubated for 48 hrs by sulforhodamine B assay relative to control
HCT-116 = assay: Growth inhibition of human HCT116 cells at 10^-5 M incubated for 48 hrs by sulforhodamine B assay relative to control
HCT-15 = assay: Growth inhibition of human HCT15 cells at 10^-5 M incubated for 48 hrs by sulforhodamine B assay relative to control
HT-29 = assay: Growth inhibition of human HT-29 cells at 10^-5 M incubated for 48 hrs by sulforhodamine B assay relative to control
SW-620 = assay: Growth inhibition of human SW620 cells at 10^-5 M incubated for 48 hrs by sulforhodamine B assay relative to control
SF-268 = assay: Growth inhibition of human SF268 cells at 10^-5 M incubated for 48 hrs by sulforhodamine B assay relative to control
SNB-19 = assay: Growth inhibition of human SNB19 cells at 10^-5 M incubated for 48 hrs by sulforhodamine B assay relative to control
U-251 = assay: Growth inhibition of human U251 cells at 10^-5 M incubated for 48 hrs by sulforhodamine B assay relative to control
Malme-3M = assay: Growth inhibition of human MALME-3M cells at 10^-5 M incubated for 48 hrs by sulforhodamine B assay relative to control
M14 = assay: Growth inhibition of human M14 cells at 10^-5 M incubated for 48 hrs by sulforhodamine B assay relative to control
MDA-MB-435 = assay: Growth inhibition of human MDA-MB-435 cells at 10^-5 M incubated for 48 hrs by sulforhodamine B assay relative to control
SK-MEL-2 = assay: Growth inhibition of human SK-MEL-2 cells at 10^-5 M incubated for 48 hrs by sulforhodamine B assay relative to control
SK-MEL-28 = assay: Growth inhibition of human SK-MEL-28 cells at 10^-5 M incubated for 48 hrs by sulforhodamine B assay relative to control
SK-MEL-5 = assay: Growth inhibition of human SK-MEL-5 cells at 10^-5 M incubated for 48 hrs by sulforhodamine B assay relative to control
UACC-257 = assay: Growth inhibition of human UACC257 cells at 10^-5 M incubated for 48 hrs by sulforhodamine B assay relative to control
UACC-62 = assay: Growth inhibition of human UACC62 cells at 10^-5 M incubated for 48 hrs by sulforhodamine B assay relative to control
IGROV-1 = assay: Growth inhibition of human IGROV1 cells at 10^-5 M incubated for 48 hrs by sulforhodamine B assay relative to control
OVCAR-3 = assay: Growth inhibition of human OVCAR3 cells at 10^-5 M incubated for 48 hrs by sulforhodamine B assay relative to control
OVCAR-5 = assay: Growth inhibition of human OVCAR5 cells at 10^-5 M incubated for 48 hrs by sulforhodamine B assay relative to control
OVCAR-8 = assay: Growth inhibition of human OVCAR8 cells at 10^-5 M incubated for 48 hrs by sulforhodamine B assay relative to control
NCI/ADR-RES = assay: Growth inhibition of human NCI-ADR-RES cells at 10^-5 M incubated for 48 hrs by sulforhodamine B assay relative to control
SK-OV-3 = assay: Growth inhibition of human SKOV3 cells at 10^-5 M incubated for 48 hrs by sulforhodamine B assay relative to control
CAKI-1 = assay: Growth inhibition of human Caki1 cells at 10^-5 M incubated for 48 hrs by sulforhodamine B assay relative to control
RXF 393 = assay: Growth inhibition of human RXF393 cells at 10^-5 M incubated for 48 hrs by sulforhodamine B assay relative to control
SN12C = assay: Growth inhibition of human SN12C cells at 10^-5 M incubated for 48 hrs by sulforhodamine B assay relative to control
UO-31 = assay: Growth inhibition of human UO31 cells at 10^-5 M incubated for 48 hrs by sulforhodamine B assay relative to control
DU-145 = assay: Growth inhibition of human DU145 cells at 10^-5 M incubated for 48 hrs by sulforhodamine B assay relative to control
MCF7 = assay: Growth inhibition of human MCF7 cells at 10^-5 M incubated for 48 hrs by sulforhodamine B assay relative to control
BT-549 = assay: Growth inhibition of human BT549 cells at 10^-5 M incubated for 48 hrs by sulforhodamine B assay relative to control
T47D = assay: Growth inhibition of human T47D cells at 10^-5 M incubated for 48 hrs by sulforhodamine B assay relative to control
MDA-MB-468 = assay: Growth inhibition of human MDA-MB-468 cells at 10^-5 M incubated for 48 hrs by sulforhodamine B assay relative to control
Candida albicans [1] = assay: Antifungal activity against Candida albicans at 100 ug/ml by disc diffusion method; details: read-out: IZ
Candida albicans [2] = assay: Antifungal activity against Candida albicans after 24 hrs by serial dilution method
Aspergillus fumigatus = assay: Antifungal activity against Aspergillus fumigatus after 24 hrs by serial dilution method

SMILES: Cc1ccc2nc(Cl)c(Cn3nnc(CSc4ccccc4)n3)cc2c1
- growth inhibition (GI) (HL-60(TB)): Active
- growth inhibition (GI) (K562): Active
- growth inhibition (GI) (MOLT-4): Active
- growth inhibition (GI) (SR): Active
- growth inhibition (GI) (A549): Active
- growth inhibition (GI) (NCI-H226): Active
- growth inhibition (GI) (NCI-H23): Active
- growth inhibition (GI) (NCI-H460): Active
- growth inhibition (GI) (NCI-H522): Active
- growth inhibition (GI) (COLO 205): Active
- growth inhibition (GI) (HCC 2998): Active
- growth inhibition (GI) (HCT-116): Active
- growth inhibition (GI) (HCT-15): Active
- growth inhibition (GI) (HT-29): Active
- growth inhibition (GI) (SW-620): Active
- growth inhibition (GI) (SF-268): Active
- growth inhibition (GI) (SNB-19): Active
- growth inhibition (GI) (U-251): Active
- growth inhibition (GI) (Malme-3M): Active
- growth inhibition (GI) (M14): Active
- growth inhibition (GI) (MDA-MB-435): Active
- growth inhibition (GI) (SK-MEL-2): Active
- growth inhibition (GI) (SK-MEL-28): Active
- growth inhibition (GI) (SK-MEL-5): Active
- growth inhibition (GI) (UACC-257): Active
- growth inhibition (GI) (UACC-62): Active
- growth inhibition (GI) (IGROV-1): Active
- growth inhibition (GI) (OVCAR-3): Active
- growth inhibition (GI) (OVCAR-5): Active
- growth inhibition (GI) (OVCAR-8): Active
- growth inhibition (GI) (NCI/ADR-RES): Active
- growth inhibition (GI) (SK-OV-3): Active
- growth inhibition (GI) (CAKI-1): Active
- growth inhibition (GI) (RXF 393): Active
- growth inhibition (GI) (SN12C): Active
- growth inhibition (GI) (UO-31): Active
- growth inhibition (GI) (DU-145): Active
- growth inhibition (GI) (MCF7): Active
- growth inhibition (GI) (BT-549): Active
- growth inhibition (GI) (T47D): Active
- growth inhibition (GI) (MDA-MB-468): Active
- zone of inhibition at 100 µg/mL (Candida albicans [1]): 12 mm
- MIC (Candida albicans [2]): 10 µg/mL (≈ 26.2 µM)
- MIC (Aspergillus fumigatus): 25 µg/mL (≈ 65.5 µM)

SMILES: Clc1nc2ccccc2cc1Cn1nnnc1Cc1ccccc1
- growth inhibition (GI) (HL-60(TB)): Active
- growth inhibition (GI) (K562): Active
- growth inhibition (GI) (MOLT-4): Active
- growth inhibition (GI) (SR): Active
- growth inhibition (GI) (A549): Active
- growth inhibition (GI) (NCI-H226): Active
- growth inhibition (GI) (NCI-H23): Active
- growth inhibition (GI) (NCI-H460): Active
- growth inhibition (GI) (NCI-H522): Active
- growth inhibition (GI) (COLO 205): Active
- growth inhibition (GI) (HCC 2998): Active
- growth inhibition (GI) (HCT-116): Active
- growth inhibition (GI) (HCT-15): Active
- growth inhibition (GI) (HT-29): Active
- growth inhibition (GI) (SW-620): Active
- growth inhibition (GI) (SF-268): Active
- growth inhibition (GI) (SNB-19): Active
- growth inhibition (GI) (U-251): Active
- growth inhibition (GI) (Malme-3M): Active
- growth inhibition (GI) (M14): Active
- growth inhibition (GI) (MDA-MB-435): Active
- growth inhibition (GI) (SK-MEL-2): Active
- growth inhibition (GI) (SK-MEL-28): Active
- growth inhibition (GI) (SK-MEL-5): Active
- growth inhibition (GI) (UACC-257): Active
- growth inhibition (GI) (UACC-62): Active
- growth inhibition (GI) (IGROV-1): Active
- growth inhibition (GI) (OVCAR-3): Active
- growth inhibition (GI) (OVCAR-5): Active
- growth inhibition (GI) (OVCAR-8): Active
- growth inhibition (GI) (NCI/ADR-RES): Active
- growth inhibition (GI) (SK-OV-3): Active
- growth inhibition (GI) (CAKI-1): Active
- growth inhibition (GI) (RXF 393): Active
- growth inhibition (GI) (SN12C): Active
- growth inhibition (GI) (UO-31): Active
- growth inhibition (GI) (DU-145): Active
- growth inhibition (GI) (MCF7): Active
- growth inhibition (GI) (BT-549): Active
- growth inhibition (GI) (T47D): Active
- growth inhibition (GI) (MDA-MB-468): Active
- zone of inhibition at 100 µg/mL (Candida albicans [1]): 10 mm
- MIC (Candida albicans [2]): 25 µg/mL (≈ 74.4 µM)
- MIC (Aspergillus fumigatus): 50 µg/mL (≈ 149 µM)

SMILES: Clc1nc2ccc(Br)cc2cc1Cn1nnnc1CSc1ccccc1
- growth inhibition (GI) (HL-60(TB)): Active
- growth inhibition (GI) (K562): Active
- growth inhibition (GI) (MOLT-4): Active
- growth inhibition (GI) (SR): Active
- growth inhibition (GI) (A549): Active
- growth inhibition (GI) (NCI-H226): Active
- growth inhibition (GI) (NCI-H23): Active
- growth inhibition (GI) (NCI-H460): Active
- growth inhibition (GI) (NCI-H522): Active
- growth inhibition (GI) (COLO 205): Active
- growth inhibition (GI) (HCC 2998): Active
- growth inhibition (GI) (HCT-116): Active
- growth inhibition (GI) (HCT-15): Active
- growth inhibition (GI) (HT-29): Active
- growth inhibition (GI) (SW-620): Active
- growth inhibition (GI) (SF-268): Active
- growth inhibition (GI) (SNB-19): Active
- growth inhibition (GI) (U-251): Active
- growth inhibition (GI) (Malme-3M): Active
- growth inhibition (GI) (M14): Active
- growth inhibition (GI) (MDA-MB-435): Active
- growth inhibition (GI) (SK-MEL-2): Active
- growth inhibition (GI) (SK-MEL-28): Active
- growth inhibition (GI) (SK-MEL-5): Active
- growth inhibition (GI) (UACC-257): Active
- growth inhibition (GI) (UACC-62): Active
- growth inhibition (GI) (IGROV-1): Active
- growth inhibition (GI) (OVCAR-3): Active
- growth inhibition (GI) (OVCAR-5): Active
- growth inhibition (GI) (OVCAR-8): Active
- growth inhibition (GI) (NCI/ADR-RES): Active
- growth inhibition (GI) (SK-OV-3): Active
- growth inhibition (GI) (CAKI-1): Active
- growth inhibition (GI) (RXF 393): Active
- growth inhibition (GI) (SN12C): Active
- growth inhibition (GI) (UO-31): Active
- growth inhibition (GI) (DU-145): Active
- growth inhibition (GI) (MCF7): Active
- growth inhibition (GI) (BT-549): Active
- growth inhibition (GI) (T47D): Active
- growth inhibition (GI) (MDA-MB-468): Active
- zone of inhibition at 100 µg/mL (Candida albicans [1]): 12 mm
- MIC (Candida albicans [2]): 25 µg/mL (≈ 56 µM)
- MIC (Aspergillus fumigatus): 5 µg/mL (≈ 11.2 µM)
